Data reported in patent US20120101057A1, “COMBINED THERAPY OF COLORECTAL CARCINOMA” (INSTYTUT FARMACEUTYCZNY, priority 2009, published 2012).

Legend:
[1] = test system: murine colorectal cancer MC38/EGFP; test: burden of metastases in regional lymph nodes, MC38/EGFP fluorescence (1c); format: in vivo, mice
From the text: Cancer cells of murine colorectal cancer MC38/EGFP (cells expressing a protein of green fluorescence) were implanted subcutaneously in an amount of 1×10^6 cells/mouse. […] Compounds were given subcutaneously, 3 times a week. […] Then on day 59 of experiment, lymph nodes from mice of remaining were taken for analysis. Using NightOWL II LB 983 apparatus, photographs of isolated lymph nodes were taken in order to visualize cancer cells in sites of metastases.
Intensity of the measured fluorescence is related to a burden of metastases (the number of cells with fluorescence).

[2] = body mass of mice under combined therapy; format: in vivo; conditions: combination with 5-FU
[3] = test system: murine colorectal cancer C38; test: survival time and tumour growth in mice with colorectal cancer C38 treated with 5-FU (1b); format: in vivo
Procedure: Mice with colorectal cancer C38 were treated with 5-FU given in a single administration, intraperitoneally on day 1 at a dose of 75 mg/kg.

colorectal cancer HT-29 = test: tumour growth in mice with colorectal cancer HT-29 treated with 5-fluorouracil; format: in vivo
MC38/0 = test: antiproliferative activity of 5-fluorouracil combined with vitamin D analogues in vitro, 120 h; format: cell-based, mouse; parameters: key: +: sub-additive effect; ++: additive effect; +++: synergistic effect; −: antagonism; conditions: 120-hours exposure
Procedure: After 24 h culture, the cells of large intestine carcinoma were treated simultaneously with calcitriol or vitamin D analogues and 5-fluorouracil for 120 hours. […] Statistical analysis of the obtained results of inhibition of proliferation was carried out by analysis of percent of inhibition of proliferation in individual combinations of compounds.
(§1) Hypothetical value was calculated according to a formula: […]
(§2) wherein: % H—hypothetical inhibition of proliferation by combination of compounds [Vo]; % cyt—inhibition of proliferation by 5-Fu alone [%]; % vit—inhibition of proliferation by calcitriol or cholecalciferol analogue alone [%];
(§3) Additive effect occurs when the experimental and hypothetical value are similar, sub-additive effect occurs when experimental value is lower than hypothetical value but above value for a cytostatic alone, and antagonistic action—when a value determined for a cytostatic used alone is above experimental value for combination of both compounds. [Peters G. J. i wsp.: Pharmacol Ther 2000, 87, 227-253]

[4] = calcium level in blood serum of mice treated with 5-FU and vitamin D analogues; format: in vivo, Mice of BALB/c strain; conditions: BALB/c; 5-FU 50 mg/kg i.p. day 1; PRI-2191 2 or PRI-2205 10 μg/kg/day 3 times a week
Procedure: Mice of BALB/c strain were treated with 5-FU given in a single administration, intraperitoneally on day 1 at a dose of 50 mg/kg. […] Calcium level was evaluated (Arsezano 3 method, Olympus AU400; Olympus America Inc., Melville, NY, USA) in blood serum of treated and control mice.

[5] = test system: murine colorectal cancer C38; test: tumour growth in mice with colorectal cancer C38 treated with 5-fluorouracil (1a); format: in vivo, Mice of C57BL/6 strain
[6] = test system: murine colorectal carcinoma C38; test: tumour growth in mice with murine colorectal carcinoma C38 treated with capecitabine; format: in vivo, Mice of C57BL/6 strain
LoVo = test: antiproliferative activity of 5-fluorouracil combined with vitamin D analogues in vitro, 120 h; format: cell-based, human; parameters: key: +: sub-additive effect; ++: additive effect; +++: synergistic effect; −: antagonism; conditions: analogue 100 nM + 5-fluorouracil 1 μg/ml, 120-hours exposure
Procedure: (§4) After 24 h culture, the cells of large intestine carcinoma were treated simultaneously with calcitriol or vitamin D analogues and 5-fluorouracil for 120 hours. The final concentration of vitamin D analogues was 100 nM, and of 5-fluorouracil—-1 μg/ml or 0.1 μg/ml. Statistical analysis of the obtained results of inhibition of proliferation was carried out by analysis of percent of inhibition of proliferation in individual combinations of compounds.
as §1, §2, §3

HT-29 = test: as above; format: cell-based, human; parameters: key: +: sub-additive effect; ++: additive effect; +++: synergistic effect; −: antagonism; conditions: analogue 100 nM + 5-fluorouracil 0.1 μg/ml, 120-hours exposure
Procedure: as §4, §1, §2, §3

CaCo-2 = test: as above; format: cell-based, human; parameters: key to Type of reaction between vitamin D analogues and 5-fluorouracil: +: sub-additive effect; ++: additive effect; +++: synergistic effect; −: antagonism; conditions: CaCo-2; analogue 100 nM + 5-fluorouracil 1 μg/ml; 120-hours exposure
Procedure: as §4, §1, §2, §3

[7] = analogue combined with capecitabine

C=C1/C(=C\C=C2/CCC[C@]3(C)[C@@H]([C@H](C)CC[C@@H](O)C(C)C)CC[C@@H]23)C[C@@H](O)C[C@@H]1O [PRI-2191, 1,24(R)-dihydroxycholekalciferol]
metastases in regional lymph nodes (intensity of fluorescence), combined treatment with 5-FU ([1]; 5-FU 75 mg/kg i.p. with PRI-2191 1 μg/kg or PRI-2205 10 μg/kg s.c., day 59): increased anti-metastatic action | metastases in regional lymph nodes (fluorescence) versus control mice ([1]; analogue only, day 50): did not differ significantly | body mass of mice treated with 5-FU in combination with vitamin D analogue, versus 5-FU alone [2]: increased loss of body mass | ILS % ([3]; C38, 5-FU 75 mg/kg i.p. day 1, PRI-2191 2, PRI-2205 10 μg/kg/day 3 times per week): 52% | TGI (d20) % ([3]; C38, day 20): 44% | C38 tumour mass, combination with 5-FU in comparison with 5-FU ([3]; analogue combined with 5-FU): in a statistically significant manner decreases tumour mass also in comparison with 5-FU | C38 tumour mass in comparison with control ([3]; single agent): inhibits C38 tumour growth only in two last measurements | TGI (colorectal cancer HT-29; HT-29, 49 day of experiment): 16% | Tumours MEAN ± SD (colorectal cancer HT-29; HT-29, 49 day of experiment): 2.19 ± 1.51 g | HT-29 tumour mass, combination with 5-FU in comparison with 5-FU alone (colorectal cancer HT-29; analogue combined with 5-FU): influences significantly also tumour mass in comparison with 5-FU alone | type of interaction in inhibition of HT-29 tumour growth (colorectal cancer HT-29; analogue combined with 5-FU): synergism | HT-29 tumour mass in comparison with control (colorectal cancer HT-29; single agent): did not influence tumour mass | Type of reaction between vitamin D analogues and 5-fluorouracil (MC38/0; MC38/0, analogue 100 nM + 5-fluorouracil 0.1 μg/ml): +++ | Type of reaction between vitamin D analogues and 5-fluorouracil (MC38/0; analogue 100 nM + 5-fluorouracil 0.01 μg/ml, cell line of this column unclear (MC38/0 or CaCo-2)): +++ | calcium level in blood serum of mice [4]: calcium level increases in statistically significant degree | TGI ([5]; C38, 28 day of experiment): 16% | Tumours MEAN ± SD ([5]; C38, 28 day of experiment, 5-FU 150 mg/kg i.p., PRI-2191 2 ug/kg s.c., PRI-2205 10 μg/kg s.c.): 0.88 ± 0.49 g | volume of tumours C38, combination with 5-FU in comparison with 5-FU ([5]; analogue combined with 5-FU): decreases in statistically significant manner volume of tumours also in comparison with 5-FU | volume of tumours C38 in comparison with control ([5]; single agent): inhibits 38C tumours growth in the last four measurements | Tumours MEAN ± SD ([6]; C38, 18 day of experiment, KCY 250 mg/kg/day oral, PRI-2191 1, PRI-2205 10 μg/kg/day s.c.): 0.75 ± 0.32 g | tumour mass, combination with capecitabine in comparison with capecitabine alone [6, 7]: influences significantly tumour mass in comparison with capecitabine alone | type of interaction in inhibition of tumour growth with capecitabine [6, 7]: a synergistic effect is seen mainly in the last days of the experiment | tumour C38 mass in comparison with control ([6]; single agent): does not influence tumour mass | Type of reaction between vitamin D analogues and 5-fluorouracil (LoVo): +++ | Type of reaction between vitamin D analogues and 5-fluorouracil (HT-29): +++ | Type of reaction between vitamin D analogues and 5-fluorouracil (CaCo-2): +++
